According to patent US9045491B2, “Thienyl [3,2-D] pyrimidin-4-one compounds, preparation method, pharmaceutical compositions and use thereof” (SHANGHAI INSTITUTE OF MATERIA MEDICA, CHINESE ACADEMY OF …, priority 2011, dated 2015):

Experiments:
Type in all cases: biochemical
human DPP IV = molecular target: T1, human DPP IV (Homo sapiens, UniProt P27487); assay: DPP IV activity screening (Ala-Pro-AMC fluorescence)
T1 construct: extracellular fragment of protease DPP IV (aa29-766); made in house; host or cells: baculovirus expression system Bac-to-Bac
T1 sequence (P27487 29-766): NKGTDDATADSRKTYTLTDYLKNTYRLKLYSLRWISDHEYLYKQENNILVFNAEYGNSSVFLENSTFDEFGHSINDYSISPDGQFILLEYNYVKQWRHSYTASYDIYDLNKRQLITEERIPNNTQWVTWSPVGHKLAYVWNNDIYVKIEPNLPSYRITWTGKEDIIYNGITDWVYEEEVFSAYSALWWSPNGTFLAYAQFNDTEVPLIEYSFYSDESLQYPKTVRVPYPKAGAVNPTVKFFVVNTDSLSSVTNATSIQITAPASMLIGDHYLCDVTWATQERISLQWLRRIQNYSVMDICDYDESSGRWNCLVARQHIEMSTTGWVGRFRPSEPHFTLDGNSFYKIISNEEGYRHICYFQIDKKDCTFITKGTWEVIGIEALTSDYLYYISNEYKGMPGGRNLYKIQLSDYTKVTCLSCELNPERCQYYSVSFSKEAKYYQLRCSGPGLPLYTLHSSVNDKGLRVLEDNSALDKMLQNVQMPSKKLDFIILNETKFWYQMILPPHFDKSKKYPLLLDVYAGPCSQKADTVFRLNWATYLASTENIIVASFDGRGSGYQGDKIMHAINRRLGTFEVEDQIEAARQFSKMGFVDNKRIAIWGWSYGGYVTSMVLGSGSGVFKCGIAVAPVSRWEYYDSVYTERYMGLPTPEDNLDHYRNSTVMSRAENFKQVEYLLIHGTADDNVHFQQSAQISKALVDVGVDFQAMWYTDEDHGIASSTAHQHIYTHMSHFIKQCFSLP
Description: (§1) Screening method: dipeptidyl peptidase IV (DPP IV) activity screening, dipeptidyl peptidase 7 (DPP 7), dipeptidyl peptidase 8 (DPP 8) activity screening, and dipeptidyl peptidase 9 (DPP 9) activity screening.
Instruments: Microplate Reader (PerkinElmer, USA).
The linear change of fluorescence value at 460 nm in unit time was dynamically measured and DPP IV activity was obtained by calculation.
(§2) Sample treatment: the sample was dissolved in DMSO and stored in low temperature. The concentration of DMSO in the final system was controlled so that the detected activity was not affected.
(§3) The activity of sample was tested under the selected single concentration from preliminary screening, for example, 20 μg/mL. […] The software for calculation was Graphpad Prism 4 and the model used for fitting was sigmoidal dose-response (variable slope). For most inhibitor screening models, the bottom and top of the fitting curve were set to 0 and 100.

[1] = molecular target: dipeptidyl peptidase 7 (DPP 7) (Homo sapiens, UniProt Q9UHL4); assay: DPP 7 activity screening; settings: N.I. = No Inhibition
Description: as §1, §2, §3

human DPP 8 = molecular target: T2, human DPP 8 (Homo sapiens, UniProt Q6V1X1); assay: DPP 8 activity screening (Ala-Pro-AMC fluorescence); settings: N.I. = No Inhibition
T2 construct: made in house; host or cells: insect cells, baculovirus Bac-to-Bac
T2 sequence (Q6V1X1 whole entry): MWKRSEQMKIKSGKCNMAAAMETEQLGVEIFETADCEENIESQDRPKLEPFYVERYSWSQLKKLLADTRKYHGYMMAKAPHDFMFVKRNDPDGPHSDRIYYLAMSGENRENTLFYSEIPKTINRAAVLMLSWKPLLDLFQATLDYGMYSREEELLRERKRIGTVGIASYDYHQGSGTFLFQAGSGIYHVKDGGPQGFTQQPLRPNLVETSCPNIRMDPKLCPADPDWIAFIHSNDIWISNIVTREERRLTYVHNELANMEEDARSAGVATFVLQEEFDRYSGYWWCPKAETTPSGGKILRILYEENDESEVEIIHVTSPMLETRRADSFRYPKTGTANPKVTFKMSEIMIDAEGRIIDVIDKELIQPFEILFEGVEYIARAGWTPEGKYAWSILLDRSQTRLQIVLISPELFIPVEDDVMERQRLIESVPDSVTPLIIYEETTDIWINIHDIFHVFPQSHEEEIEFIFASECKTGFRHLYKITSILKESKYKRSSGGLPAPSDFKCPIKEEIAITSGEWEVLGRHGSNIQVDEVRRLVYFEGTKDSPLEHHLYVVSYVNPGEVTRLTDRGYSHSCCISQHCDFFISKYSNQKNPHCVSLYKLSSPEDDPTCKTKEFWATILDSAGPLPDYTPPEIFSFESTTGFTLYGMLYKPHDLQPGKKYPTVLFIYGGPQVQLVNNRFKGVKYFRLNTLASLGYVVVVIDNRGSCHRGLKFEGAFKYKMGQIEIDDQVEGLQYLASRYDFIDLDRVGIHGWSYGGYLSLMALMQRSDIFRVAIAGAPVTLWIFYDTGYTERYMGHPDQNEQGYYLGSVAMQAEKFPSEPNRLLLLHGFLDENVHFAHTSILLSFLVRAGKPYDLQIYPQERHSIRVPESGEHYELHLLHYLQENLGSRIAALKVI
Description: as §1
(§4) Materials: human DPP IV, obtained extracellular fragment of protease DPP IV (aa29-766), was expressed and purified by our laboratory using baculovirus expression system Bac-to-Bac (purchased from GIBCO company) in accordance with the conventional experimental technology; human DPP 8 was obtained in insect cells by our laboratory using baculovirus expression system Bac-to-Bac (purchased from GIBCO company) in accordance with the conventional experimental technology; Human DPP 9 was obtained in insect cells by our laboratory using baculovirus expression system Bac-to-Bac (purchased from GIBCO company) in accordance with the conventional experimental technology; and the substrate Ala-Pro-AMC was synthesized by GL Biochem (Shanghai) Ltd.
(§5) Principle of Activity test: DPP IV, DPP 8 and DPP 9 can specifically hydrolyze the substrate Ala-Pro-AMC to form product AMC, and AMC is excited by 355 nm of UV light to generate 460 nm of emission light. The linear change of fluorescence value at 460 nm in unit time was dynamically measured and DPP IV activity was obtained by calculation.
as §2, §3

Human DPP 9 = molecular target: T3, Human DPP 9 (Homo sapiens, UniProt Q86TI2); assay: DPP 9 activity screening (Ala-Pro-AMC fluorescence); settings: N.I. = No Inhibition
T3 construct: made in house; host or cells: insect cells, baculovirus Bac-to-Bac
T3 sequence (Q86TI2 whole entry): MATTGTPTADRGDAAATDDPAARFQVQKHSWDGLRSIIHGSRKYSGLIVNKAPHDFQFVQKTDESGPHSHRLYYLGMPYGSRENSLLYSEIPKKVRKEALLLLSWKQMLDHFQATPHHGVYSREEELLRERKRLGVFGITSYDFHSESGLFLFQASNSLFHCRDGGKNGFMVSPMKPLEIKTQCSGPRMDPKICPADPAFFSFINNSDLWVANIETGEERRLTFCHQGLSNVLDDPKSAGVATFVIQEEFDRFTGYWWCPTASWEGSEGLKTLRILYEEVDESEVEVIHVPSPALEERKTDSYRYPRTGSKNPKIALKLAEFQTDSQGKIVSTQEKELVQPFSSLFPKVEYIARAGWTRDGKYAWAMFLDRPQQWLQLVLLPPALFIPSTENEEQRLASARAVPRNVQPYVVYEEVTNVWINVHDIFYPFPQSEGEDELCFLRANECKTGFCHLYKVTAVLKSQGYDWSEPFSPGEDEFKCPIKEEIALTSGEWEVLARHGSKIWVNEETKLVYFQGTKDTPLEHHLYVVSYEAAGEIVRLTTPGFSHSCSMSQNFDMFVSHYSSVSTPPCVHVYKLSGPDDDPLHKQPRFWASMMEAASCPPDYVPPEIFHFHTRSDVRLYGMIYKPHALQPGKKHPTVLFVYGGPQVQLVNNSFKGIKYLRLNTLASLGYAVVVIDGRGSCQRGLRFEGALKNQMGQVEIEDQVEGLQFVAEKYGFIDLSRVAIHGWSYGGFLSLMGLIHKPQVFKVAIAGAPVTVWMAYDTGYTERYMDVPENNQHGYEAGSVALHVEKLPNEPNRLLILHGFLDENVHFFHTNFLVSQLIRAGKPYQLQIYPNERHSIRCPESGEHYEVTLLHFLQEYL
Description: as §1, §4, §5, §2, §3

SMILES | IC50 (human DPP IV) | DPP 7 IC50 [1] | IC50 (human DPP 8) | DPP 9 IC50 (Human DPP 9) | IC50 (Human DPP 9)
N#Cc1ccccc1Cn1c(N2CCC[C@@H](N)C2)nc2c(C(=O)N[C@H]3CCOC3=O)csc2c1=O [Compound 92, 2-((R)-3-aminopiperidin-1-yl)-3-(2-cyanobenzyl)-4-oxo-N-((S)-2-oxotetrahydrofuran-3-yl)-3,4-dihydrothieno[3,2-d]pyrimidine-7-carboxamide] | 21.7 nM | N.I. | 76700 nM | N.I. | –
N#Cc1ccccc1Cn1c(N2CCC[C@@H](N)C2)nc2c(Cl)csc2c1=O [Compound 9, (R)-2-((2-(3-aminopiperidin-1-yl)-7-chloro-4-oxothieno[3,2-d]pyrimidin-3-(4H)-yl)methyl)benzonitrile] | 36.8 nM | – | – | – | –
CCOC(=O)CCCNC(=O)c1csc2c(=O)n(Cc3ccccc3C#N)c(N3CCC[C@@H](N)C3)nc12 [Compound 89, (R)-ethyl 4-(2-(3-aminopiperidin-1-yl)-3-(2-cyanobenzyl)-4-oxo-3,4-dihydrothieno[3,2-d]pyrimidine-7-carboxamido)butanoate] | 14.3 nM | N.I. | 39400 nM | N.I. | –
COC(=O)[C@@H]1CCCN1C(=O)c1cc2nc(N3CCC[C@@H](N)C3)n(Cc3ccccc3C#N)c(=O)c2s1 [Compound 125, (S)-methyl 1-(2-((R)-3-aminopiperidin-1-yl)-3-(2-cyanobenzyl)-4-oxo-3,4-dihydrothieno[3,2-d]pyrimidine-6-carbonyl)pyrrolidine-2-carboxylate] | 33.8 nM | N.I. | 15500 nM | – | 172000 nM
CCOC(=O)CCNC(=O)c1csc2c(=O)n(Cc3ccccc3C#N)c(N3CCC[C@@H](N)C3)nc12 [Compound 88, (R)-ethyl 3-(2-(3-aminopiperidin-1-yl)-3-(2-cyanobenzyl)-4-oxo-3,4-dihydrothieno[3,2-d]pyrimidine-7-carboxamido)propanoate] | 14.8 nM | N.I. | 54900 nM | N.I. | –
N#Cc1ccccc1Cn1c(N2CCC[C@@H](N)C2)nc2cc(C(Br)Br)sc2c1=O [Compound 98, (R)-2-((2-(3-aminopiperidin-1-yl)-6-(dibromomethyl)-4-oxothieno[3,2-d]-pyrimidin-3(4H)-yl)methyl)benzonitrile] | 9.95 nM | N.I. | – | – | –
N#Cc1ccccc1Cn1c(N2CCC[C@@H](N)C2)nc2c(Cl)c(Cl)sc2c1=O [Compound 10, (R)-2-((2-(3-aminopiperidin-1-yl)-6,7-dichloro-4-oxothieno[3,2-d]pyrimidin-3(4H)-yl)methyl)benzonitrile] | 90 nM | – | – | – | –
N#Cc1ccccc1Cn1c(N2CCC[C@@H](N)C2)nc2c3c(sc2c1=O)CCCC3 [Compound 27, (R)-2-((2-(3-aminopiperidin-1-yl)-4-oxo-6,7,8,9-tetrahydrobenzo[4,5]thieno-[3,2-d]pyrimidin-3(4H)-yl)methyl)-benzonitrile] | 35.5 nM | – | – | – | –
N#Cc1ccccc1Cn1c(N2CCC[C@@H](N)C2)nc2c(Br)csc2c1=O [Compound 4, (R)-2-((2-(3-aminopiperidin-1-yl)-7-bromo-4-oxothieno[3,2-d]pyrimidin-3(4H)-yl)methyl)benzonitrile] | 8.78 nM | – | – | – | –
N#Cc1ccccc1Cn1c(N2CCC[C@@H](N)C2)nc2cc(Cl)sc2c1=O [Compound 8, (R)-2-((2-(3-aminopiperidin-1-yl)-6-chloro-4-oxothieno[3,2-d]pyrimidin-3 (4H)-yl)methyl)benzonitrile] | 45.6 nM | – | – | – | –
N#Cc1ccccc1Cn1c(N2CCC[C@@H](N)C2)nc2cc(F)sc2c1=O [Compound 1, (R)-2-((2-(3-aminopiperidin-1-yl)-6-fluoro-4-oxothieno[3,2-d]pyrimidin-3(4H)-yl)methyl)benzonitrile] | 34.7 nM | – | – | – | –
